Test results taken from patent EP4635565A1, “PRENYLATED TETRAHYDROQUINOLINES AND QUINOLINES WITH PPAR AGONIST ACTIVITY” (Fundación para la Investigación del Hospital Clínico de la …, priority 2024, dated 2025).

How the values were obtained:
PDK4-(PPRE)3-Luc+ = assay: Pdk4 transactivation assay (PDK4-(PPRE)3-Luc+ reporter in L929sA cells); assay type: cell-based, mouse; details: 10 µM, 6 h
Protocol: Transfection of L929sA cells stably expressing reporter genes was performed using the calcium phosphate precipitation protocol according to standard procedures with a 10-fold excess of the plasmid of interest in a pGL3-basic vector containing Luc+, a modified firefly luciferase gene (Promega Biotec, Madison, Wis,) USA. USA). The Pdk4 reporter was created using an enhancer site linked to the Pdk4 promoter containing three PPRE extracted from mouse liver genomic DNA. The aforementioned plasmid construct was then introduced into a pMet7 backbone, which had previously been cloned with a luciferase gene site, using Xhol and Sacl cut sites. The resulting construct was subjected to geneticin (neomycin) antibiotic selection to isolate individual clones. A stable cell line, designated Pdk4-Luc+, was subsequently established in L929sA cells, which also contained a constitutively expressed galactosidase reporter and a neomycin selection cassette.
Pyruvate Dehydrogenase Kinase 4 gene (Pdk4), a well-known target gene of PPARs, encodes a protein that regulates the phosphorylation and inactivation of the pyruvate dehydrogenase complex in response to physiological conditions. This response switches the energy source from glucose to fatty acids to maintain blood glucose levels to, thereby, increase lipid metabolism. Because it is a well-known target gene of PPARs, the effect of the 2- and 3-prenylated esters of tetrahydroquinolines and quinolines on a Pdk4 region reported to bind PPARα, was evaluated. The L929sA cells that were stably transfected with a PDK4-(PPRE)3-Luc+ reporter gene construct were used.

hPPARγ = target: T1, hPPARγ (Homo sapiens, UniProt P37231); assay: PPAR transactivation assay, human chimeric PPAR/Gal4 reporter luciferase system in Cos-7 cells (PPARγ); assay type: cell-based
T1 sequence (P37231 238-505): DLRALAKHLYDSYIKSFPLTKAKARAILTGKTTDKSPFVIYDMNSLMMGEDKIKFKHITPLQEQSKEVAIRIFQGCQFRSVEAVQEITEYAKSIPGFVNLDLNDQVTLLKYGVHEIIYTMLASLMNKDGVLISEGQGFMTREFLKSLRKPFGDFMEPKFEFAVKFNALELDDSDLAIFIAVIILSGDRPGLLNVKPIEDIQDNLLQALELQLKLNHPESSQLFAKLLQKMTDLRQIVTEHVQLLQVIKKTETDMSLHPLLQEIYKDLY
Protocol: Transfections were stopped after 16 h by adding DMEM/10% FCS. Cells were detached with trypsin, re-seeded in 96-well plates for 6 h in DMEM/10% FCS, and incubated for 24 h in DMEM/0.2% FCS with increasing concentrations of the test compounds or vehicle (DMSO, 0.1% final concentration). At the end of the experiment, cells were washed once with ice-cold PBS, lysed, and luciferase and β-galactosidase activities were measured. Luciferase activity was normalised to that of the internal control, β-galactosidase. All transfection experiments were performed at least five times.
EC50 values against human PPARα/Gal4, PPARβ/δ/Gal4 and PPARγ/Gal4 receptors.

THP-1 cells = assay: Cytotoxicity, Annexin V-FITC/PI dual staining by flow cytometry; assay type: cell-based, human; details: 30 and 100 µM, 24 h
Protocol: The cytotoxicity of tetrahydroquinoline and quinoline esters 5a, 5b, 8a and 8b was evaluated at 30 and 100 µM by flow cytometry to assess cell survival using an Annexin V-FITC/PI dual staining assay. THP-1 cells (3 × 10^4 cells per well) were seeded in 24-well plates and allowed to grow overnight. The medium was then replaced and incubations with the different compounds or DMSO were performed during 24 h. Then, all cells were processed with the Annexin V-assay kit (ANXCFK7, Immunostep, Salamanca, Spain) according to the manufacturer's instruction. A Becton Dickinson LSR Fortessa cytometer (BD Biosciences, Franklin Lakes, NJ, USA) was used for samples, and cell analysis were performed using FACSDiva X20 software.
The potential cytotoxic effects of the compounds of the invention 5a, 5b, 8a, and 8b on the human macrophage cell line THP-1 were evaluated by flow cytometry to assess cell survival using an Annexin V-FITC/PI dual staining assay. The THP-1 cells were treated with concentrations of 30 and 100 µM for 24 h.

ob/ob mice = assay: In vivo study in ob/ob mice, biochemical analysis of blood; details: orally, 10 mg/kg/d, 15 days
Protocol: Animal studies were carried out in accordance with Directive 2010/63/EU for experimentation on animals. The handling of the animals and the experimental protocols were approved by the Animal Experimentation Ethics Committee of the University of Valencia (Protocol No. A1469445706311). Six-week-old male ob/ob mice (C57BL/6.Cg-Lepob/J) were supplied by Charles River Laboratories International (Wilmington, MA). Blood samples were collected from mice fasted for 6 hours to determine basal blood glucose levels. The animals, randomly divided into two groups (N ≈ 10-11 per group), were treated daily with vehicle (1% hydroxyethyl cellulose, Sigma-Aldrich) or with tetrahydroquinoline 5a at 10 mg/kg/day, for 15 days orally. After 15 days of treatment, and 6 h of fasting, the mice were anesthetized by inhalation of isoflurane and blood samples were collected in tubes with heparin or EDTA by intracardiac puncture. Plasma samples were obtained and stored at -80°C. Liver and epididymal white adipose tissue were removed and part of both organs were quickly frozen in liquid N2 for qPCR studies.
Plasma levels of total cholesterol and HDL-cholesterol (HDL-c) were determined by enzymatic processes using commercial kits: LabAssay™ Cholesterol (Wako Pure Chemicals Industries, Cape Charles, VA) and Mouse HDL-Cholesterol Assay Kit (Crystal Chem, Elk Grove Village, IL), respectively. Non-HDL cholesterol levels were calculated (total cholesterol - HDL-c). Fasting blood glucose levels were measured using a glucometer (Contour Next, Bayer HealthCare Pharmaceuticals LLC, Berlin, Germany), while insulin levels were determined using the commercial Mouse Insulin ELISA kit (Mercodia, Uppsala, Sweden). The HOMA-IR index was calculated using the following formula: fasting blood glucose (mmol/L) * fasting insulinemia (µU/mL) / 22.5.
Tetrahydroquinoline 5a administered for 15 days (orally, 10 mg/kg/d) to an obese and diabetic mouse model (ob/ob), improved lipid and carbohydrate parameters. Indeed, 5a decreased total cholesterol and non-HDL cholesterol levels, as well as insulin levels and the HOMA-IR index in the blood of oblob mice, compared to vehicle-treated mice (Figures 4A-4D).

[1] = compared to vehicle-treated mice

CCOC(=O)CC/C(C)=C/CCC1CCc2cc(OCc3ccccc3)ccc2N1C (centres unmarked) [Compound 5a, Ethyl (E)-7-(6-(benzyloxy)-1-methyl-1,2,3,4-tetrahydroquinolin-2-yl)-4-methylhept-4-enoate]
transactivation of the PDK4-Luc+ indicator (PDK4-(PPRE)3-Luc+; L929sA cells, compared to GW7647 at 1 µM): increased the transactivation of the PDK4-Luc+ indicator
maximal transactivation response compared with GW7647 (PDK4-(PPRE)3-Luc+; GW7647 at 1 µM as positive control): outperformed the maximal activity of the prior art compound GW7647
Emax at 10 µM (hPPARγ; COS-7, read-out: Efficacy (%) at 10 µmol/L PPARγ): 43%
EC50 (hPPARγ; human PPARγ/Gal4, Cos-7 cells, concentration range 0.001-10 µmol/L, NA: not active): 2700 nM
cytotoxic effects (cell survival) (THP-1 cells): No cytotoxic effects were observed
levels of hepatic transaminase ALT (ob/ob mice): did not increase
levels of hepatic transaminase AST (ob/ob mice): did not increase
HOMA-IR index (ob/ob mice; compared to vehicle, calculated from fasting glucose and insulin): decreased
non-HDL cholesterol levels (ob/ob mice; compared to vehicle, total cholesterol - HDL-c): decreased
insulin levels (ob/ob mice; [1]): decreased
total cholesterol levels (ob/ob mice; [1]): decreased
